According to patent US20250161419A1, “SERPIN PEPTIDES AND METHODS OF USING THE SAME” (SERPIN PHARMA, LLC, priority 2022, published 2025):

Tests used:
TSLP = assay: Poly I:C-induced TSLP production by SPINK7 knockout EPC2 cells (ELISA); format: cell-based, human; conditions: Poly I:C 5 μg/ml, 8 hours
Method: (§1) FIG. 12A: Poly I:C-induced TSLP production by SPINK7 knockout EPC2 cells (Human esophageal epithelial cells). SPINK7 KO cells and control cells were plated in high calcium and high density, for 48 hours before being treated with SP16 or 7G and Poly I:C (5 μg/ml, or untreated) for 8 hours. TSLP production in the supernatant was measured by ELISA. FIG. 12B: primary esophageal epithelial cells (EPC2) were treated with SP16 and then stimulated with IL-13, a TH2 response mediated cytokine, to induce CCL26.
(§2) SP16 reduces several key cytokines involved in allergic responses. Upon knockout of SPINK7, esophageal epithelial cells release exacerbated levels of TSLP. TSLP is a key mediator of immune cell responses upon activation to an insult such as allergens.

CCL26 = CCL26 release by esophageal epithelial cells (EPC2); format: cell-based, human
Method: as §1, §2

NFκB = NFκB reporter assay stimulated with LPS (THP1-XBlue-MD2-GD14 reporter cells, SEAP read-out); format: cell-based; conditions: peptide 50 μg/ml before LPS 5 ng/ml, overnight
Method: The reporter cells (THP1-XBlue-MD2-GD14 cells) were treated with each peptide (50 μg/ml) before being insulted with LIPS (5 ng/ml) and incubated overnight. The NFκB inducible Secreted Embryonic Alkaline Phosphatase (SEAP) was measured in the supernatant and read for absorbance.

PAR2 = assay: MC903 AD model, PAR2 protein expression in ears by western blot; format: in vivo, mouse; conditions: topical, vs MC903
Method: (§3) Mice were treated with SP16 in 70% EtOH (MC903+SP16) or drug vehicle (MC903). Normal control (NC) mice were treated with EtOH only. Ears were measured for PAR2 protein expression through western blot analysis (quantitative analysis after normalization to beta-actin shown) (n=3-5). TSLP was measured in both the ears and serum by ELISA (N=3-5). Scratching was assessed over a 3 minute period after a 5-minute acclimatization period and the number of scratches are shown (n=3). IL-4 was measured in ear lysate via ELISA (N=3-5).

IL-1a = assay: OVA-challenge allergic inflammation model, IL-1a in BALF by ELISA; format: in vivo, mouse; conditions: OVA-challenge in sensitized mice, treated during challenge phase, vs vehicle
Method: Mice were subjected to the OVA-challenge allergic inflammation model and treated with vehicle or SP16 during the challenge phase. The bronchoalveolar lavage fluid (BALF) was analyzed for cytokines via ELISA.
The ova-induced model of allergic inflammation is a widely used model of eosinophilic driven allergic diseases.

IL-4 = assay: MC903 AD model, IL-4 in ear lysate by ELISA; format: in vivo, mouse; conditions: topical, vs MC903
Method: as §3

phospho-ERK1/2 = assay: Cell signaling analysis in PC12 cells, immunoblot of phospho-ERK1/2; format: cell-based, rat
Method: Cell signaling analysis: Rat PC12 cells were purchased from ATCC (CRL-1721). PC12 cells were maintained in high glucose DMEM (Gibco, USA) containing 10% heat-inactivated FBS (Gibco, USA), 5% HyClone heat-inactivated horse serum (Cytiva, USA), penicillin (100 units/ml) and streptomycin ([…]) in 6-well plates that were pre-coated with 0.01 mg/ml type IV collagen (Sigma-Aldrich, St. Louis, MO, USA). Cells were transferred to serum-free medium (SFM) 4 h prior to adding effectors, and then treated with SP163M (2.4, 24 or 240 nM); EI-tPA (12 nM), NGF (0.36 nM), or vehicle (PBS) for 10 min. In some cases, cells were pre-incubated with the competitive antagonist of LRP1, GST-RAP (150 nM) for 15 min or electroporated using the Rat Neuron Nucleofector Amaxa Kit (Lonza Biosciences) and incubated with siRNA to silence LRP1 expression (siLRP1; M-094191-01-0010, Dharmacon) for 48 h. Control cells were transfected with non-targeting control (NTC) siRNA (NTC; D-001810-10-05, Dharmacon). Cells were rinsed with ice-cold PBS and proteins were extracted in RIPA buffer (20 mM sodium phosphate, 150 mM NaCl, pH 7.4, 1% Triton X-100, 0.5% sodium deoxycholate, 0.1% SDS) supplemented with protease and phosphatase inhibitors (Roche Diagnostics, USA). After 30 min on ice, lysates were centrifuged at 15000×g for 5 min, supernatant collected and stored at −20° C. Equal amounts of protein from cell lysates (20 μg), as determined by BCA Protein Assay (ThermoFisher Scientific, Waltham, MA, USA), were subjected to 10% SDS-PAGE and electro-transferred to nitrocellulose membranes. The membranes were blocked with 5% nonfat dried milk and then incubated with primary anti-phospho-AKT (Cell Signaling Technology, Danvers, MA, USA; cat #9271S; 1:1000), anti-phospho-ERK1/2 (Cell Signaling Technology, Danvers, MA, USA; cat #9101S; 1:1000), anti-LRP1 (Cell Signaling Technology, Danvers, MA, USA; cat #64099S; 1:1000) or anti total-ERK1/2 (Cell Signaling Technology, Danvers, MA, USA; cat #91012S; 1:1000). Immunoblots were developed using Radiance, Radiance Q, and Radiance Plus chemiluminescent substrates and imaged using a BioRad ChemiDoc Imaging System (Bio-Rad, Hercules, CA, USA).

Q: Which results are given for “VKFNKPFVFLMIEQNTK (SP16 peptide core sequence including the LRP1 binding site; listed as Homo sapiens)”?
A: Poly I:C mediated TSLP release (TSLP): effective in significantly reducing Poly 1:C mediated TSLP and CCL26 release; CCL26 release (text: Poly 1:C mediated) (CCL26; primary SPINK7 knockout esophageal cells): effective in significantly reducing Poly 1:C mediated TSLP and CCL26 release; CCL26 release induced by IL-13 (CCL26; primary esophageal epithelial cells (EPC2), SP16 then IL-13): significantly reduced CCL26 release dose dependently; NFκB activity (NFκB inducible SEAP in supernatant) (NFκB): capable of reducing NFκB activity; PAR2 protein expression in ears (PAR2): PAR2 and TSLP inhibition; IL-1a in BALF (IL-1a): significantly reduces IL-1a; IL-4 release in the skin tissue (ear lysate) (IL-4): significantly reduced; activation of ERK1/2 over time (phospho-ERK1/2; 240 nM, 0-30 min): robustly activated ERK1/2 from 5 to 30 min; lowest concentration that activated phospho-ERK1/2 (phospho-ERK1/2; 10 min, 0-240 nM): 24 nM; activation of ERK1/2 in cells transfected with NTC siRNA (phospho-ERK1/2; 48 h after transfection): ERK1/2 was robustly activated
